From ChEMBL document CHEMBL1155424, “3D-QSAR and docking studies on transforming growth factor (TGF)-beta receptor 1 antagonists” (Bioorg Med Chem Lett, 2010)

Target: T1, TGF-beta receptor type-1 (Homo sapiens, UniProt P36897)
T1 sequence (P36897 whole entry): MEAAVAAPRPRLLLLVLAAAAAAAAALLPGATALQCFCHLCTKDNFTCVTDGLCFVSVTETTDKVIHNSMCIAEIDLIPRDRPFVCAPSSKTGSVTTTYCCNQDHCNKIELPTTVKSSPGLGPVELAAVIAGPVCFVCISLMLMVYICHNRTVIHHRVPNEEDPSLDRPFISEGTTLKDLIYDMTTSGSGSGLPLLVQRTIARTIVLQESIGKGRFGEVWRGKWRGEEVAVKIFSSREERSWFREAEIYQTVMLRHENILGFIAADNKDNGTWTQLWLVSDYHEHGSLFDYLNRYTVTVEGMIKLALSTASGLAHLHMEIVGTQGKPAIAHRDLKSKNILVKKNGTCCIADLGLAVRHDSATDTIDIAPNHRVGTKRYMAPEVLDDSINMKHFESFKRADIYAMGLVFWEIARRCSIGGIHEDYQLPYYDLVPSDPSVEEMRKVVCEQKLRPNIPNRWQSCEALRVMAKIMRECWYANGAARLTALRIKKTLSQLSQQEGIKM
Description: Antagonistic activity at TGFBR1

| Compound | IC50 |
| --- | --- |
| Cc1cccc(-c2[nH]c(CNc3ccc(C#N)cc3)nc2-c2ccc3c(c2)OCO3)n1 | 171 nM |

Target: T2, TGF-beta receptor type-1 (Homo sapiens) (UniProt P36897)
T2 sequence (whole entry): T1 sequence (P36897 whole entry)
Description: Antagonistic activity at TGFBR1

| Compound | logIC50 | logKi |
| --- | --- | --- |
| CCc1cccc(-c2[nH]c(CNc3ccc(C(N)=O)cc3)nc2-c2ccc3c(c2)OCO3)n1 | -0.415 |  |
| Cc1cccc(-c2[nH]c(CNc3cccc(C(N)=O)c3)nc2-c2ccc3c(c2)OCO3)n1 | -1.68 |  |
| CCc1cccc(-c2[nH]c(CNc3cccc(C(N)=O)c3)nc2-c2ccc3c(c2)OCO3)n1 | -1.34 |  |
| CCc1cccc(-c2[nH]c(CNc3cccc(C#N)c3)nc2-c2ccc3nccnc3c2)n1 | -0.924 |  |
| O=C(O)c1ccc(-c2nc(-c3ccc4c(c3)OCO4)c(-c3ccccn3)[nH]2)cc1 | -0.77 |  |
| Cc1cccc(-c2[nH]c(NCc3cccc(C#N)c3)nc2-c2ccc3c(c2)OCO3)n1 | -1.62 |  |
| Cc1cccc(-c2[nH]c(NCc3ccc(C#N)cc3)nc2-c2ccc3c(c2)OCO3)n1 | -0.815 |  |
| CCc1cccc(-c2[nH]c(CNc3ccc(C#N)cc3)nc2-c2ccc3c(c2)OCO3)n1 | -0.443 |  |
| Cc1cccc(-c2[nH]c(CNc3ccc(C#N)cc3)nc2-c2ccc3nccnc3c2)n1 | -1.38 |  |
| CCc1cccc(-c2[nH]c(CNc3cccc(C(N)=O)c3)nc2-c2ccc3nccnc3c2)n1 | -1.82 |  |
| CCc1cccc(-c2[nH]c(CNc3ccc(C#N)cc3)nc2-c2ccc3nccnc3c2)n1 |  | -1.32 |
| Cc1cccc(-c2[nH]c(C(C)(C)C)nc2-c2ccc3c(c2)OCO3)n1 | -1.33 |  |
| OCc1ccc(-c2nc(-c3ccccn3)c(-c3ccc4c(c3)OCO4)[nH]2)cc1 |  | -0.585 |
| Cc1cccc(-c2[nH]c(CNc3ccc(C(N)=O)cc3)nc2-c2ccc3nccnc3c2)n1 | -1.12 |  |
| N#Cc1ccc(-c2nc(-c3ccc4c(c3)OCO4)c(-c3ccccn3)[nH]2)cc1 | 0.47 |  |
| Cc1cccc(-c2[nH]c(CNc3cccc(C#N)c3)nc2-c2ccc3c(c2)OCO3)n1 | -1.34 |  |
| Cc1cccc(-c2[nH]c(CNc3cccc(C(N)=O)c3)nc2-c2ccc3nccnc3c2)n1 |  | -2 |
| Cc1cccc(-c2[nH]c(CNc3cccc(C#N)c3)nc2-c2ccc3nccnc3c2)n1 | -1.92 |  |
| Cc1cccc(-c2[nH]c(CNc3ccc(C(N)=O)cc3)nc2-c2ccc3c(c2)OCO3)n1 | -0.582 |  |
| Cc1cccc(-c2[nH]c(CNc3ccc(C#N)cc3)nc2-c2ccc3c(c2)OCO3)n1 | -0.759 |  |
| CCc1cccc(-c2[nH]c(CNc3cccc(C#N)c3)nc2-c2ccc3c(c2)OCO3)n1 | -1.14 |  |
